The values that follow come from ChEMBL document CHEMBL4689842, “EUbOPEN Chemogenomics Library wave 1” (2021).

Holding throughout (format): toxicity, cell-based
Data set [1] relates to U2OS. Put plainly: Incucyte cell viability with U2OS. The conditions noted are these: human, 10 µM, compound concentration 10 uM.
Data set [2] has as its system Fibroblast. Put plainly: Incucyte cell viability with human fibroblast. The conditions noted are these: 10 µM, compound concentration 10 uM.
Data set [3] concerns HEK-293T. The data set can be described thus: Incucyte cell viability with HEK293T. The conditions noted are these: human, 10 µM, compound concentration 10 uM.
Setting [4] is: 0 h, replicate number 1, timepoint 0 hours.
[5] abbreviates: 6 h, replicate number 1, timepoint 6 hours.
Setting [6] is: 12 h, replicate number 1, timepoint 12 hours.
Setting [7] is: 12 h, replicate number 2, timepoint 12 hours.
Setting [8] is: 18 h, replicate number 1, timepoint 18 hours.
Setting [9] is: 18 h, replicate number 2, timepoint 18 hours.
The mark [10] stands for this setting: 24 h, replicate number 1, timepoint 24 hours.
[11] abbreviates: 24 h, replicate number 2, timepoint 24 hours.
The mark [12] stands for this setting: 0 h, replicate number 2, timepoint 0 hours.
Setting [13] is: 6 h, replicate number 2, timepoint 6 hours.
Also: filed as whole numbers so only -1 and 0 and 1 occur.

With `Nc1ncnc2c1ccn2[C@@H]1O[C@H]([C@H](O)c2ccccc2)[C@@H](O)[C@H]1O`, the “Growth Rate” value in data set [1] (setting [4]) amounted to 0; in data set [1] (setting [5]), 0; in data set [1] (setting [6]), 0; in data set [1] (setting [7]), 1; in data set [1] (setting [8]) it was 0; in data set [1] (setting [9]) it was 1. The “Growth Rate” value turned out to be 0 in data set [1] (setting [10]); 1 in data set [1] (setting [11]); 0 in data set [2] (setting [12]); 1 in data set [2] (setting [13]); 0 in data set [2] (setting [7]); 1 in data set [2] (setting [8]). Moreover, the “Growth Rate” value in data set [2] (setting [10]) was found to be 1; in data set [2] (setting [11]) it was 0; in data set [3] (setting [12]), 1; in data set [3] (setting [5]), 1; in data set [3] (setting [7]) it was 1; in data set [3] (setting [8]), 1. In addition, the “Growth Rate” value in data set [3] (setting [10]) turned out to be 1.
With `COC(=O)/C=C/c1cccc(N(Cc2ccc(-c3ccc(N(C)C)cc3)cc2)C(=O)C2CCCCC2)c1` [FEXARAMINE], the “Growth Rate” value in data set [1] (setting [12]) was 0; in data set [1] (setting [13]) it was 0; in data set [1] (setting [6]), 1; in data set [1] (setting [7]), 0; in data set [1] (setting [8]), 1; in data set [1] (setting [9]) it was 0. In addition, the “Growth Rate” value in data set [1] (setting [10]) was 0; in data set [2] (setting [4]), 0; in data set [2] (setting [5]) it was 0; in data set [2] (setting [6]), 1; in data set [2] (setting [7]), 0; in data set [2] (setting [8]), 1. The “Growth Rate” value in data set [2] (setting [9]) was found to be 0; in data set [2] (setting [10]), 1; in data set [2] (setting [11]), 0; in data set [3] (setting [4]) it was 0; in data set [3] (setting [5]), 1; in data set [3] (setting [13]), 0. Further, the “Growth Rate” value in data set [3] (setting [6]), in data set [3] (setting [8]) and in data set [3] (setting [10]) was 0 in each case.
For `Cl.Clc1cccc(COc2cncc(N3CCNCC3)n2)c1`, the “Growth Rate” value in data set [1] (setting [13]) amounted to 0; in data set [1] (setting [6]) it was 0; in data set [1] (setting [7]), 1; in data set [1] (setting [8]), 1; in data set [1] (setting [10]), 1; in data set [2] (setting [4]) it was 1. The “Growth Rate” value in data set [2] (setting [5]) is listed as 1; in data set [2] (setting [13]), 0; in data set [2] (setting [7]), 0; in data set [2] (setting [9]) it was 0; in data set [2] (setting [10]) it was 1; in data set [2] (setting [11]) it was 0. The “Growth Rate” value in data set [3] (setting [12]) worked out at 1; in data set [3] (setting [5]), 0; in data set [3] (setting [6]), 0; in data set [3] (setting [8]), 0; in data set [3] (setting [10]), 0.
For the compound `CC(C)N(CCCNC(=O)Nc1ccc(C(C)(C)C)cc1)C[C@H]1O[C@@H](n2cc(Br)c3c(N)ncnc32)[C@H](O)[C@@H]1O`, the “Growth Rate” value in data set [1] (setting [4]) was found to be 0; in data set [1] (setting [5]) it was 1; in data set [1] (setting [6]) it was 1; in data set [1] (setting [8]) it was 1; in data set [1] (setting [10]) it was 1; in data set [2] (setting [12]), 0. Moreover, the “Growth Rate” value amounted to 1 in data set [2] (setting [6]); 1 in data set [2] (setting [8]); 1 in data set [2] (setting [10]); 0 in data set [3] (setting [5]); 0 in data set [3] (setting [7]); 1 in data set [3] (setting [9]). In addition, in data set [3] (setting [10]), the “Growth Rate” value is 1.
`O[C@H]1CC[C@H](Nc2ncc3nc(Nc4c(F)cc(F)cc4F)n([C@H]4CCOC4)c3n2)CC1` [TANZISERTIB]: the “Growth Rate” value was 0 in data set [1] (setting [4]); 1 in data set [1] (setting [12]); 0 in data set [1] (setting [5]); 0 in data set [1] (setting [6]); 0 in data set [1] (setting [8]); 0 in data set [1] (setting [10]). The “Growth Rate” value in data set [2] (setting [12]) is 0; in data set [2] (setting [5]), 0; in data set [2] (setting [6]) it was 1; in data set [2] (setting [7]) it was 0; in data set [2] (setting [8]), 1; in data set [2] (setting [10]) it was 1. Further, the entries for the “Growth Rate” value in data set [3] (setting [4]) and in data set [3] (setting [12]) were 0 and 1, respectively.
As to `Cc1csc(NC(=O)c2cc(F)cc(Oc3cncnc3)c2)n1`, the “Growth Rate” value in data set [1] (setting [5]) is given as 1; in data set [1] (setting [13]), 0; in data set [1] (setting [6]), 0; in data set [1] (setting [8]), 0; in data set [1] (setting [9]) it was 1; in data set [1] (setting [10]), 0. Further, the “Growth Rate” value in data set [1] (setting [11]) worked out at 1; in data set [2] (setting [4]), 0; in data set [2] (setting [5]), 0; in data set [2] (setting [6]) it was 0; in data set [2] (setting [8]), 1; in data set [2] (setting [9]), 0. The “Growth Rate” value stood at 1 in data set [2] (setting [10]); 0 in data set [2] (setting [11]); 0 in data set [3] (setting [4]); 1 in data set [3] (setting [5]); 0 in data set [3] (setting [6]); 1 in data set [3] (setting [7]). For the same compound, the “Growth Rate” value in data set [3] (setting [8]) worked out at 1; in data set [3] (setting [9]), 0; in data set [3] (setting [10]), 1; in data set [3] (setting [11]), 0.
Take `CO[C@@H](C)c1c(Nc2ccc([C@H](N(C)C(=O)C3CCS(=O)(=O)CC3)C(F)(F)F)cc2)cnc2cc(Cl)nn12` [NVS-MALT1]: the “Growth Rate” value worked out at 0 in data set [1] (setting [4]); 0 in data set [1] (setting [5]); 1 in data set [1] (setting [13]); 1 in data set [1] (setting [6]); 0 in data set [1] (setting [7]); 1 in data set [1] (setting [8]). Moreover, the “Growth Rate” value in data set [1] (setting [10]) amounted to 1; in data set [2] (setting [12]) it was 0; in data set [2] (setting [5]), 0; in data set [2] (setting [13]), 1; in data set [2] (setting [6]), 0; in data set [2] (setting [7]), 1. The “Growth Rate” value in data set [2] (setting [8]) worked out at 0; in data set [2] (setting [9]), 1; in data set [2] (setting [10]), 0; in data set [2] (setting [11]), 1; in data set [3] (setting [4]) it was 0; in data set [3] (setting [12]), 1. The “Growth Rate” value in data set [3] (setting [13]), in data set [3] (setting [6]), in data set [3] (setting [8]) and in data set [3] (setting [10]) was 0 in each case.
For the compound `COCCOc1nc(-c2ccc(Cl)nc2)nc2c1CN(C(=O)c1ncn3ccccc13)CC2` [THPP-1], the “Growth Rate” value worked out at 0 in data set [1] (setting [4]); 0 in data set [1] (setting [5]); 1 in data set [1] (setting [13]); 1 in data set [1] (setting [6]); 0 in data set [1] (setting [8]); 0 in data set [1] (setting [10]). Further, the “Growth Rate” value is recorded as 0 in data set [2] (setting [4]); 0 in data set [2] (setting [5]); 1 in data set [2] (setting [6]); 0 in data set [2] (setting [7]); 1 in data set [2] (setting [8]); 0 in data set [2] (setting [9]). The “Growth Rate” value in data set [2] (setting [10]) is reported as 1; in data set [2] (setting [11]) it was 0; in data set [3] (setting [4]), 0; in data set [3] (setting [12]) it was 1; in data set [3] (setting [13]), 0; in data set [3] (setting [7]), 0. The figures for the “Growth Rate” value in data set [3] (setting [8]), in data set [3] (setting [10]) and in data set [3] (setting [11]) were 1, 1 and 0, respectively.
For the compound `COc1cc2ncnc(Nc3ccc(F)c(Cl)c3)c2cc1OCCCN1CCOCC1` [GEFITINIB], the “Growth Rate” value in data set [1] (setting [4]) is reported as 0; in data set [1] (setting [5]), 0; in data set [1] (setting [6]) it was 0; in data set [1] (setting [7]), 1; in data set [1] (setting [8]), 0; in data set [1] (setting [9]), 1. For the same compound, the “Growth Rate” value in data set [1] (setting [10]) was 0; in data set [1] (setting [11]) it was 1; in data set [2] (setting [4]) it was 0; in data set [2] (setting [13]), 1; in data set [2] (setting [6]), 0; in data set [2] (setting [8]), 0. Also, the “Growth Rate” value in data set [2] (setting [10]), in data set [3] (setting [4]), in data set [3] (setting [5]), in data set [3] (setting [6]), in data set [3] (setting [8]) and in data set [3] (setting [10]) was 0 in each case.
Consider `O=C(NCC(=O)N1CCCC1)Nc1ccc2cnccc2c1`, for which the “Growth Rate” value in data set [1] (setting [4]) worked out at 0; in data set [1] (setting [5]), 1; in data set [1] (setting [13]), 0; in data set [1] (setting [6]), 1; in data set [1] (setting [7]), 0; in data set [1] (setting [8]), 1. Also, the “Growth Rate” value in data set [1] (setting [10]) is reported as 1; in data set [2] (setting [12]), 0; in data set [2] (setting [5]), 0; in data set [2] (setting [6]), 0; in data set [2] (setting [7]), 1; in data set [2] (setting [8]), 0. The “Growth Rate” value in data set [2] (setting [9]) is listed as 1; in data set [2] (setting [10]), 0; in data set [2] (setting [11]), 1; in data set [3] (setting [4]), 0; in data set [3] (setting [13]), 0; in data set [3] (setting [7]) it was 0. For the same compound, the results for the “Growth Rate” value in data set [3] (setting [9]), in data set [3] (setting [10]) and in data set [3] (setting [11]) were 1, 1 and 0, respectively.
On to `C[C@H](NC(=O)c1cnc2n1[C@](C)(Cc1ccc(C#N)cc1)C(=O)N2c1cc(Cl)c(F)c(Cl)c1)C(=O)NC1(c2ccccn2)CC1` [BI 1950], for which the “Growth Rate” value in data set [1] (setting [4]) stood at 0; in data set [1] (setting [13]), 1; in data set [1] (setting [6]), 1; in data set [1] (setting [8]), 1; in data set [1] (setting [10]), 1; in data set [2] (setting [4]), 0. Besides, the “Growth Rate” value in data set [2] (setting [12]) was 1; in data set [2] (setting [13]), 0; in data set [2] (setting [7]) it was 0; in data set [2] (setting [8]) it was 1; in data set [2] (setting [9]) it was 0; in data set [2] (setting [10]), 1. The “Growth Rate” value is listed as 0 in data set [2] (setting [11]); 1 in data set [3] (setting [4]); 0 in data set [3] (setting [12]); 0 in data set [3] (setting [5]); 0 in data set [3] (setting [6]); 0 in data set [3] (setting [8]). The “Growth Rate” value in data set [3] (setting [10]) turned out to be 0.
As for `Cl.Cl.Cl.c1ccc(N2CCN(Cc3nc4ccccc4[nH]3)CC2)nc1`, the “Growth Rate” value came to 0 in data set [1] (setting [4]); 0 in data set [1] (setting [13]); 1 in data set [1] (setting [6]); 1 in data set [1] (setting [8]); 1 in data set [1] (setting [10]); 0 in data set [2] (setting [4]). In addition, the “Growth Rate” value turned out to be 1 in data set [2] (setting [7]); 1 in data set [2] (setting [9]); 1 in data set [2] (setting [10]); 1 in data set [3] (setting [4]); 0 in data set [3] (setting [12]); 1 in data set [3] (setting [5]). The “Growth Rate” value in data set [3] (setting [6]) came out at 1; in data set [3] (setting [7]) it was 0; in data set [3] (setting [8]), 1; in data set [3] (setting [10]), 0.
